{"source": "ChEMBL document CHEMBL1144133", "about": "“Novel highly oxygenated bisabolane sesquiterpenes from Cremanthodium discoideum” (1999)", "assay_type_in_all_cases": "functional", "key": {"Bacillus subtilis": {"tested_on": "Bacillus subtilis", "experiment": "Antibacterial activity against Bacillus subtilis MCCB 26501 at 100 ug/ml after 24 hrs by paper-disk method"}, "Pseudomonas aeruginosa": {"tested_on": "Pseudomonas aeruginosa", "experiment": "Antibacterial activity against Bacillus aeruginosus MCCB 10104 at 100 ug/ml after 24 hrs by paper-disk method"}, "Bacillus": {"tested_on": "Bacillus", "experiment": "Antibacterial activity against Bacillus acidilatici MCCB 44102 at 100 ug/ml after 24 hrs by paper-disk method"}}}
{"smiles": "C=C([C@@H](C[C@H](O)C(C)(C)OC)OC(=O)/C(C)=C\\C)[C@@H]1C[C@@H](Cl)[C@](C)(O)[C@H](OC(C)=O)[C@@H]1OC(=O)/C(C)=C\\C", "values": [{"measurement": "Activity", "setting": "Bacillus subtilis", "result": 13, "unit": "mm"}, {"measurement": "Activity", "setting": "Pseudomonas aeruginosa", "result": "<9", "unit": "mm"}, {"measurement": "Activity", "setting": "Bacillus", "result": 10, "unit": "mm"}]}
{"smiles": "O=C(N[C@H](CO)[C@H](O)c1ccc([N+](=O)[O-])cc1)C(Cl)Cl", "note": "[CHLORAMPHENICOL]", "values": [{"measurement": "Activity", "setting": "Bacillus subtilis", "result": 13, "unit": "mm"}, {"measurement": "Activity", "setting": "Pseudomonas aeruginosa", "result": 13, "unit": "mm"}, {"measurement": "Activity", "setting": "Bacillus", "result": 13, "unit": "mm"}]}
